Read-outs that look alike come from different tables or passages of the source.

One assay concerns the target Cbl-b (Homo sapiens (Human), UniProt Q13191). The experiment in a line: Cbl-b displacement assay (Cbl-b inhibition assay), TR-FRET probe displacement, Biological Example 1. The class given is binding. The essentials: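 TR-FRET displacement of a BODIPY FL-labelled inhibitor probe (150 nM, ~EC40) from biotin-Avitag truncated Cbl-b, detected via 2 nM streptavidin-Tb, 1 h, room temperature. Compound in 1% DMSO pre-incubated 1 h with Cbl-b at 0.5 nM (High) or 0.125 nM (Low) in 20 mM HEPES pH 7.5, 150 mM NaCl, 0.5 mM TCEP.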
For orientation: In TR-FRET formats the signal depends on donor and acceptor labels being close together.

The test system of assay [1] is primary human total T-cells. The experiment in a line: Primary human total T-cell activation: CD25 surface staining, Biological Example 2. The class given is cell-based. Conditions: 48 hours, fold change over baseline; for fold induction at 0.3 µM: inhibitor 0.3 μM; for fold induction at 1 µM: inhibitor 1 μM; for fold induction at 3 µM: inhibitor 3 μM.
For assay [2], the system named is primary human total T-cells. The experiment in a line: Primary human total T-cell activation: IL-2 secretion, Biological Example 2. The class given is cell-based. As to conditions: 48 hours, fold change over baseline; for fold induction at 0.3 µM: inhibitor 0.3 μM; for fold induction at 1 µM: inhibitor 1 μM; for fold induction at 3 µM: inhibitor 3 μM.
Setting [3] is: 0.125 nM Cbl-b final concentration (Low), read-out: Cbl-b activity IC50 (Low).
Setting [4] is: Cbl-b concentration (High or Low) not given, read-out: IC50 values in the Cbl-b inhibition assay of Biological Example 1.
Setting [5] is: anti-CD3/anti-CD28 co-stimulation.
Setting [6] is: anti-CD3/anti-CD28 co-stimulation, read-out: CD25 staining CD3/CD28 1 μM.
Where [7] appears, read: anti-CD3 alone, read-out: CD25 staining CD3 1 μM.
The mark [8] stands for this setting: anti-CD3/anti-CD28 co-stimulation, read-out: IL-2 secretion CD3/CD28 1 μM.
Setting [9] is: anti-CD3 alone, read-out: IL-2 secretion CD3 1 μM.

Sequence of Cbl-b (Q13191 36-427): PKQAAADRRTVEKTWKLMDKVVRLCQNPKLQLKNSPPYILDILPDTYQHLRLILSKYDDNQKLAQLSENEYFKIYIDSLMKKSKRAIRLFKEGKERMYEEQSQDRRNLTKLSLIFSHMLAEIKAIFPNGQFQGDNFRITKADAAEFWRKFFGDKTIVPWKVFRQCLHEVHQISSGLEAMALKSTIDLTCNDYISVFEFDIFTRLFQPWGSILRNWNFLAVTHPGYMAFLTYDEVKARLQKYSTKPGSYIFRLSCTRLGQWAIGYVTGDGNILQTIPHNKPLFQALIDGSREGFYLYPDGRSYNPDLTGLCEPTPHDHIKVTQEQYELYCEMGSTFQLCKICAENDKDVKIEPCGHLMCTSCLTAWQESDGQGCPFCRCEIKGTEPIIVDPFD

A word on the IC50: it is the concentration that inhibits the measured activity by half. In the case of `C[C@H]1CCCN(Cc2cc3c(c(C4CC4)n2)CN(c2cccc(C4(Cc5nncn5C(F)F)COC4)c2)C3=O)C1` [Compound 37, 4-cyclopropyl-2-[3-(3-{[4-(difluoromethyl)-1,2,4-triazol-3-yl]methyl}oxetan-3-yl)phenyl]-6-{[(3S)-3-methylpiperidin-1-yl]methyl}-3H-pyrrolo[3,4-c]pyridin-1-one], the IC50 on Cbl-b (setting [3]) and at Cbl-b (setting [4]) was 1 to 5 nM throughout. For the same molecule, the fold induction at 0.3 µM in assay [1] (setting [5]) is more than 1.39; in assay [2] (setting [5]) it was more than 15. Besides, the fold induction at 1 µM is more than 1.39 in assay [1] (setting [6]), more than 1.14 in assay [1] (setting [7]), more than 15 in assay [2] (setting [8]) and more than 0.66 in assay [2] (setting [9]). For the same molecule, the fold induction at 3 µM is more than 1.14 in assay [1] (anti-CD3 alone) and more than 0.66 in assay [2] (anti-CD3 alone).
Take `C[C@@H]1CN(Cc2cc3c(c(C4CC4)n2)CN(c2cccc(C4(Cc5nncn5C(F)F)COC4)c2)C3=O)CCC1(F)F` [Compound 38, 4-cyclopropyl-6-{[(3R)-4,4-difluoro-3-methylpiperidin-1-yl]methyl}-2-[3-(3-{[4-(difluoromethyl)-1,2,4-triazol-3-yl]methyl}oxetan-3-yl)phenyl]-3H-pyrrolo[3,4-c]pyridin-1-one]: the IC50 at Cbl-b (setting [3]) and at Cbl-b (setting [4]) was 1 to 5 nM in each case. Moreover, the fold induction at 0.3 µM was more than 1.39 in assay [1] (setting [5]) and more than 15 in assay [2] (setting [5]). Further, the fold induction at 1 µM is more than 1.39 in assay [1] (setting [6]), more than 1.14 in assay [1] (setting [7]), more than 15 in assay [2] (setting [8]) and more than 0.66 in assay [2] (setting [9]). Besides, the fold induction at 3 µM in assay [1] (anti-CD3 alone) was more than 1.14; in assay [2] (anti-CD3 alone), more than 0.66.
`CCOc1cc(C2(Cc3nncn3C)COC2)cc(N2Cc3c(cc(CN4CCC[C@H](C)C4)nc3C3CC3)C2=O)n1` [Compound 40, 4-cyclopropyl-2-(6-ethoxy-4-{3-[(4-methyl-1,2,4-triazol-3-yl)methyl]oxetan-3-yl}pyridin-2-yl)-6-{[(3S)-3-methylpiperidin-1-yl]methyl}-3H-pyrrolo[3,4-c]pyridin-1-one]: the IC50 on Cbl-b (setting [3]) and at Cbl-b (setting [4]) was less than 1 nM throughout. The fold induction at 0.3 µM in assay [1] (setting [5]) is more than 1.39; in assay [2] (setting [5]), more than 15. Further, the fold induction at 1 µM in assay [1] (setting [6]) is more than 1.39; in assay [1] (setting [7]), more than 1.14; in assay [2] (setting [8]) it was more than 15; in assay [2] (setting [9]) it was more than 0.66. Moreover, the fold induction at 3 µM in assay [1] (anti-CD3 alone) was more than 1.14; in assay [2] (anti-CD3 alone) it was more than 0.66.
For `CCOc1cc(C2(Cc3nncn3C)COC2)cc(N2Cc3c(cc(CN4CCC(F)(F)[C@H](C)C4)nc3C3CC3)C2=O)n1` [Compound 41, 4-cyclopropyl-6-{[(3R)-4,4-difluoro-3-methylpiperidin-1-yl]methyl}-2-(6-ethoxy-4-{3-[(4-methyl-1,2,4-triazol-3-yl)methyl]oxetan-3-yl}pyridin-2-yl)-3H-pyrrolo[3,4-c]pyridin-1-one], on Cbl-b (setting [3]), the half-maximal inhibitory concentration (IC50) lay within 1 to 5 nM. The results for the fold induction at 0.3 µM in assay [1] (setting [5]) and in assay [2] (setting [5]) were more than 1.39 and more than 15, respectively. Moreover, the fold induction at 1 µM was more than 1.39 in assay [1] (setting [6]), more than 1.14 in assay [1] (setting [7]), more than 15 in assay [2] (setting [8]) and more than 0.66 in assay [2] (setting [9]). Besides, the values for the fold induction at 3 µM in assay [1] (anti-CD3 alone) and in assay [2] (anti-CD3 alone) were more than 1.14 and more than 0.66, respectively.
As for `CCNc1cc(C2(Cc3nncn3C)COC2)cc(N2Cc3c(cc(CN4CCC(F)(F)[C@H](C)C4)nc3C3CC3)C2=O)n1` [Compound 42, (R)-4-cyclopropyl-6-((4,4-difluoro-3-methylpiperidin-1-yl)methyl)-2-(6-(ethylamino)-4-(3-((4-methyl-4H-1,2,4-triazol-3-yl)methyl)oxetan-3-yl)pyridin-2-yl)-2,3-dihydro-1H-pyrrolo[3,4-c]pyridin-1-one], the IC50 at Cbl-b (setting [3]) was 1 to 5 nM. The fold induction at 0.3 µM is more than 1.39 in assay [1] (setting [5]) and more than 15 in assay [2] (setting [5]). The fold induction at 1 µM in assay [1] (setting [6]) was more than 1.39; in assay [1] (setting [7]), more than 1.14; in assay [2] (setting [8]), more than 15; in assay [2] (setting [9]), more than 0.66. Besides, the fold induction at 3 µM is more than 1.14 in assay [1] (anti-CD3 alone) and more than 0.66 in assay [2] (anti-CD3 alone).
With `CCNc1cc(C2(Cc3nncn3C)COC2)cc(N2Cc3c(cc(CN4CCC[C@H](C)C4)nc3C3CC3)C2=O)n1` [Compound 43, 4-cyclopropyl-2-[6-(ethylamino)-4-{3-[(4-methyl-1,2,4-triazol-3-yl)methyl]oxetan-3-yl}pyridin-2-yl]-6-{[(3S)-3-methylpiperidin-1-yl]methyl}-3H-pyrrolo[3,4-c]pyridin-1-one], the IC50 on Cbl-b (setting [3]) fell in the range of 1 to 5 nM. Besides, the fold induction at 0.3 µM was more than 1.39 in assay [1] (setting [5]) and more than 15 in assay [2] (setting [5]). Besides, the fold induction at 1 µM in assay [1] (setting [6]) was more than 1.39; in assay [1] (setting [7]), more than 1.14; in assay [2] (setting [8]), more than 15; in assay [2] (setting [9]) it was more than 0.66. Also, the results for the fold induction at 3 µM in assay [1] (anti-CD3 alone) and in assay [2] (anti-CD3 alone) were more than 1.14 and more than 0.66, respectively.
For the molecule `C[C@@H]1C[C@H](C)CN(Cc2cc3c(c(C(F)(F)F)c2)CN(c2cccc(-c4c(-c5nncn5C)cnn4C)c2)C3=O)C1` [Compound 45, 6-((cis-3,5-dimethylpiperidin-1-yl)methyl)-2-(3-(1-methyl-4-(4-methyl-4H-1,2,4-triazol-3-yl)-1H-pyrazol-5-yl)phenyl)-4-(trifluoromethyl)isoindolin-1-one], the IC50 at Cbl-b (0.5 nM Cbl-b final concentration (High), read-out: Cbl-b activity IC50 (High)) is 1 to 5 nM; on Cbl-b (setting [4]), 1 to 5 nM. The fold induction at 0.3 µM lay within 1.25 to 1.39 in assay [1] (setting [5]) and 11 to 15 in assay [2] (setting [5]). In addition, the fold induction at 1 µM in assay [1] (setting [6]) was less than 1.24; in assay [1] (setting [7]), less than 1.04; in assay [2] (setting [8]) it was 11 to 15; in assay [2] (setting [9]), 0.34 to 0.66. The fold induction at 3 µM was less than 1.04 in assay [1] (anti-CD3 alone) and 0.34 to 0.66 in assay [2] (anti-CD3 alone).
For `C[C@H]1CCCN(Cc2cc3c(c(C(F)(F)F)c2)CN(c2cc(C4(Cc5nncn5C)COC4)cc(Cl)n2)C3=O)C1` [Compound 47, 2-(6-chloro-4-{3-[(4-methyl-1,2,4-triazol-3-yl)methyl]oxetan-3-yl}pyridin-2-yl)-6-{[(3S)-3-methylpiperidin-1-yl]methyl}-4-(trifluoromethyl)-3H-isoindol-1-one], the IC50 at Cbl-b (setting [3]) and on Cbl-b (setting [4]) was 5.1 to 100 nM throughout. For the same molecule, the fold induction at 0.3 µM is more than 1.39 in assay [1] (setting [5]) and more than 15 in assay [2] (setting [5]). The fold induction at 1 µM in assay [1] (setting [6]) was more than 1.39; in assay [1] (setting [7]) it was more than 1.14; in assay [2] (setting [8]), more than 15; in assay [2] (setting [9]) it was more than 0.66. Further, the figures for the fold induction at 3 µM in assay [1] (anti-CD3 alone) and in assay [2] (anti-CD3 alone) were more than 1.14 and more than 0.66, respectively.
Take `C[C@H]1CCCN(Cc2cc3c(c(C(F)(F)F)c2)CN(c2cc(C4(Cc5nncn5C)COC4)ccn2)C3=O)C1` [Compound 48, (S)-2-(4-(3-((4-methyl-4H-1,2,4-triazol-3-yl)methyl)oxetan-3-yl)pyridin-2-yl)-6-((3-methylpiperidin-1-yl)methyl)-4-(trifluoromethyl)isoindolin-1-one]: the 50% inhibitory concentration (IC50) on Cbl-b (setting [3]) and on Cbl-b (setting [4]) was 1 to 5 nM in each case. The fold induction at 0.3 µM was more than 1.39 in assay [1] (setting [5]) and more than 15 in assay [2] (setting [5]). Further, the fold induction at 1 µM is more than 1.39 in assay [1] (setting [6]), more than 1.14 in assay [1] (setting [7]), more than 15 in assay [2] (setting [8]) and more than 0.66 in assay [2] (setting [9]). The fold induction at 3 µM in assay [1] (anti-CD3 alone) was more than 1.14; in assay [2] (anti-CD3 alone) it was more than 0.66.
On to `C[C@@H]1CN([C@@H](C)c2cc3c(c(C4CC4)n2)CN(c2cccc(C4(Cc5nncn5C)COC4)c2)C3=O)CCC1(F)F` [Compound 49, 4-cyclopropyl-6-((S)-1-((R)-4,4-difluoro-3-methylpiperidin-1-yl)ethyl)-2-(3-(3-((4-methyl-4H-1,2,4-triazol-3-yl)methyl)oxetan-3-yl)phenyl)-2,3-dihydro-1H-pyrrolo[3,4-c]pyridin-1-one], for which the IC50 on Cbl-b (setting [3]) was less than 1 nM. Further, the figures for the fold induction at 0.3 µM in assay [1] (setting [5]) and in assay [2] (setting [5]) were more than 1.39 and more than 15, respectively. In addition, the fold induction at 1 µM was more than 1.39 in assay [1] (setting [6]), more than 1.14 in assay [1] (setting [7]), more than 15 in assay [2] (setting [8]) and more than 0.66 in assay [2] (setting [9]). The fold induction at 3 µM is more than 1.14 in assay [1] (anti-CD3 alone) and more than 0.66 in assay [2] (anti-CD3 alone).
Turning to `C[C@H](c1cc2c(c(C3CC3)n1)CN(c1cccc(C3(Cc4nncn4C)COC3)c1)C2=O)N1CCC(F)(F)[C@H](C)C1` [Compound 50, 4-cyclopropyl-6-((R)-1-((R)-4,4-difluoro-3-methylpiperidin-1-yl)ethyl)-2-(3-(3-((4-methyl-4H-1,2,4-triazol-3-yl)methyl)oxetan-3-yl)phenyl)-2,3-dihydro-1H-pyrrolo[3,4-c]pyridin-1-one], on Cbl-b (setting [3]), the IC50 is less than 1 nM. The fold induction at 0.3 µM is more than 1.39 in assay [1] (setting [5]) and more than 15 in assay [2] (setting [5]). For the same molecule, the fold induction at 1 µM is more than 1.39 in assay [1] (setting [6]), more than 1.14 in assay [1] (setting [7]), more than 15 in assay [2] (setting [8]) and more than 0.66 in assay [2] (setting [9]). The values for the fold induction at 3 µM in assay [1] (anti-CD3 alone) and in assay [2] (anti-CD3 alone) were more than 1.14 and more than 0.66, respectively.
